Results published in patent US20100305047A1, “CYCLOSPORIN DERIVATIVES FOR ENHANCING THE GROWTH OF HAIR” (ALLERGAN, INC., priority 2009, published 2010).
Starred links: 1 amine or outer side, 2 acyl side, 3 side chain; linkers in the order of their positions; H or OH if unused. Non-standard residues stand in square brackets, D forms with d. Residues, ends and D or L forms follow the SMILES beside them. ξ: configuration not given here. ξNMeBmt = C/C=C/C[C@@H](C)[C@@H](O)C(NC)C(=O)O; X1 = CN(C(SCCNC(=N)N)C(=O)[*:2])[*:1]; NMeL = CN[C@@H](CC(C)C)C(=O)O; dNMeL = CN[C@H](CC(C)C)C(=O)O; NMeV = CN[C@H](C(=O)O)C(C)C; ξNMeL = CNC(CC(C)C)C(=O)O; dAbu = CC[C@@H](N)C(=O)O

Test system: lashes and hair around the eyes of patients
Experiment: In vivo treatment: appearance of lashes and hair around the eyes of patients treated in only one eye
Parameters: species or system human
Settings: glaucoma patients, one drop daily to one eye
Method: A study is initiated to systematically evaluate the appearance of lashes and hair around the eyes of patients who are administering 3-[(2-Guanidyl)-ethylthio]-cyclosporin A (the cyclosporine A derivative of Example A, above) in only one eye. The study involves 10 subjects, 5 male, 5 female, average age 70 years, (ranging from 50-94 years). All patients have glaucoma. Each subject is treated daily by the topical application of one drop of the composition of Example 3, below, to provide 3-[(2-Guanidyl)-ethylthio]-cyclosporin A at a dosage of 1.5 µg/ml/eye/day, to the region of one eye by instilling the drop onto the surface of the eye. The region of the fellow control eye is not treated with 3-[(2-Guanidyl)-ethylthio]-cyclosporin A and serves as a control. The mean duration of exposure to 3-[(2-Guanidyl)-ethylthio]-cyclosporin A prior to assessing the parameter of lash growth between the control and study eye is 129 days (range 90-254 days). Observations are made under high magnification at the slit lamp biomicroscope. Documentation of differences between the control and treatment areas is accomplished using a camera specially adapted for use with the slit lamp biomicroscope.

[1] = 1.5 µg/ml/eye/day, mean exposure 129 days, vs untreated fellow eye, slit lamp biomicroscope

In the case of C/C=C/C[C@@H](C)[C@@H](O)C1C(=O)N[C@H](CC)C(=O)N(C)C(SCCNC(=N)N)C(=O)N(C)[C@@H](CC(C)C)C(=O)N[C@H](C(C)C)C(=O)N(C)C(CC(C)C)C(=O)N[C@H](C)C(=O)N[C@@H](C)C(=O)N(C)[C@H](CC(C)C)C(=O)N(C)[C@H](CC(C)C)C(=O)N(C)[C@@H](C(C)C)C(=O)N1C (stereo partly shown) [3-[(2-Guanidyl)-ethylthio]-cyclosporin A] (cyclo(A[dNMeL][dNMeL][NMeV][ξNMeBmt][dAbu][X1][NMeL][dV][ξNMeL][dA])), the “Increased growth of vellus hair on lids” value (1.5 µg/ml/eye/day, mean exposure 129 days, vs untreated fellow eye, areas below and lateral to the lower lid) was “vellus hairs are increased in number, appear more robust and are much longer and thicker in treated than in control eyes”, the Length of lashes [1] was “Increased length of eyelashes is regularly observed” and the Number of lashes [1] was “Increased numbers of lashes are observed in the treated eye of each patient”. The “Perpendicular angulation of hairs” value (lash-like hairs above the lash line and in the medial and lateral canthal areas) was “the hairs are much longer, thicker and heavier. They also leave the surface of the skin at a more acute angle”.
